Data: ChEMBL document CHEMBL6153032, “Discovery of a highly potent, N-terminal domain-targeting degrader of AR-FL/AR-V7 for the treatment of prostate cancer” (Eur J Med Chem, 2025)

Tests used:
Format in all cases: cell-based
[1] = target: Protein cereblon/Androgen receptor (Homo sapiens, UniProt P10275+Q96SW2); test: (§1) PROTAC activity at AR-V7/CRBN in human 22Rv1 cells assessed as reduction in AR-V7 level incubated for 24 hrs by Western blot analysis; conditions: cwr22r
[2] = system: Protein cereblon/Androgen receptor (Homo sapiens), P10275+Q96SW2 [UNDEFINED MUTATION]; test: as §1; conditions: CWR22R, dose <= 5.0 µM
Chain of Protein cereblon/Androgen receptor (Homo sapiens), P10275+Q96SW2 [UNDEFINED MUTATION] (P10275 whole entry, looked up, change not shown): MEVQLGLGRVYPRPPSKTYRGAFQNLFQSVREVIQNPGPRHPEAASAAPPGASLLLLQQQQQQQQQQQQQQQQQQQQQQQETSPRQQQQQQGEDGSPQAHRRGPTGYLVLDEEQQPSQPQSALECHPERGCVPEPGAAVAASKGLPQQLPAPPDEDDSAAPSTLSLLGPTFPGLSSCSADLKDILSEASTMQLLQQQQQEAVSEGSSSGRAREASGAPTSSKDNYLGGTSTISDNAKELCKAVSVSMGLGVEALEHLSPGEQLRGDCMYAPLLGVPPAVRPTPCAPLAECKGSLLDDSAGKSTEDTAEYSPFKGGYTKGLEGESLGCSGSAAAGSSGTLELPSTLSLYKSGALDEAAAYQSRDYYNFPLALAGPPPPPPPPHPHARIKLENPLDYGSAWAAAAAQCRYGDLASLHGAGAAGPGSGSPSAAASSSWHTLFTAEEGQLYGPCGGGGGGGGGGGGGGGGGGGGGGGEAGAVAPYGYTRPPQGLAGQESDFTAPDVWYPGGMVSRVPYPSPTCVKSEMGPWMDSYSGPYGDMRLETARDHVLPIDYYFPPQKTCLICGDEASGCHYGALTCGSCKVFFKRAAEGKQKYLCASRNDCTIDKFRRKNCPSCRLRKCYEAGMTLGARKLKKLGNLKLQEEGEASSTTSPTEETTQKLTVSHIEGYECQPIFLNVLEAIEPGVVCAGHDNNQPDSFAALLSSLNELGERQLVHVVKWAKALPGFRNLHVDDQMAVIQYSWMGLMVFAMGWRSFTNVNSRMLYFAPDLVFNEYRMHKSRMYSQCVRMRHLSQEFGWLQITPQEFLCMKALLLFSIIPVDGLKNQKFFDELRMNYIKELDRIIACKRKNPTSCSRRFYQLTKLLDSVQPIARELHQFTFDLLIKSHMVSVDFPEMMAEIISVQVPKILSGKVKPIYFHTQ
Chain of Protein cereblon/Androgen receptor (Homo sapiens), P10275+Q96SW2 [UNDEFINED MUTATION] (Q96SW2 whole entry, looked up, change not shown): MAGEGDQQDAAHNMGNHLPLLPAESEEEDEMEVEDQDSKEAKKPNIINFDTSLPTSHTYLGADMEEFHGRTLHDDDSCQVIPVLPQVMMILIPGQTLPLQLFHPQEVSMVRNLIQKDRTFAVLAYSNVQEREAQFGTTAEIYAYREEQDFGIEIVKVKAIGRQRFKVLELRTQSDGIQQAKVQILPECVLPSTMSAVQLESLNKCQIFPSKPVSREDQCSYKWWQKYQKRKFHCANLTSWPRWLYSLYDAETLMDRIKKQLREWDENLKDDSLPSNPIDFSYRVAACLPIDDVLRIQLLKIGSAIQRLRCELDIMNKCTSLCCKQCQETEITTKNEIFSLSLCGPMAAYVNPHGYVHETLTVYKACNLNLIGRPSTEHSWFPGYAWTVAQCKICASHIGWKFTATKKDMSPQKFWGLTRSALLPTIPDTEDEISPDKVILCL

[3] = system: Protein cereblon/Androgen receptor (Homo sapiens), P10275+Q96SW2 [UNDEFINED MUTATION]; test: PROTAC activity at AR-V7/CRBN in human 22Rv1 cells assessed as induction of AR-V7 degradation at 5 uM incubated for 24 hrs by Western blot analysis relative to control; conditions: CWR22R

Chain of Protein cereblon/Androgen receptor (P10275 whole entry, looked up, change not shown): as the sequence (P10275 whole entry, looked up, change not shown) above
Chain of Protein cereblon/Androgen receptor (Q96SW2 whole entry, looked up, change not shown): as the sequence (Q96SW2 whole entry, looked up, change not shown) above

**Q.** Which results are given for `CC(C)(c1ccc(OCCNc2cccc3c2C(=O)N(C2CCC(=O)NC2=O)C3=O)cc1)c1ccc(OCc2cccc(N3CCOCC3)n2)cc1` (stereo not drawn)?
**A.** DC50 [1]: 0.026 µM; Activity [2]: Dose-dependent-effect; Activity [3]: 89.6%
